The values below come from patent publication US5753661A, “Fused benzo compounds containing a nitrogen heterocycle for the treatment of central nervous system disorders” (priority 1992, dated 1998).

The target of experiment [1] is T1, 5-HT1A receptor (Rattus norvegicus, UniProt P19327).
T1 sequence (P19327 1-422): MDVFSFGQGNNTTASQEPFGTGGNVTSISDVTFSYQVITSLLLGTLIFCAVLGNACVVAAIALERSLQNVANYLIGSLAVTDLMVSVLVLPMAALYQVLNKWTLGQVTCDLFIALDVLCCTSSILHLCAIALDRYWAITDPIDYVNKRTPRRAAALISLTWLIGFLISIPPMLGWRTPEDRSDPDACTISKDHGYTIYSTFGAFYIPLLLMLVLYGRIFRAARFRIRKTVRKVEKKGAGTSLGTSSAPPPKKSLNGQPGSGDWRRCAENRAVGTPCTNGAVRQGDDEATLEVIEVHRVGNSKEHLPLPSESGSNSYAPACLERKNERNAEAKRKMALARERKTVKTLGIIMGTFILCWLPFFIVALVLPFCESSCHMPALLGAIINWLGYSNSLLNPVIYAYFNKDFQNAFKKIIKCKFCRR
Put plainly: Generalization to the discriminative stimulus properties induced by 8-OH-DPAT in rats (8-OH-DPAT cue, agonism). Format: in vivo, rat (male Wistar). Set-up: from tissue; host or cells: living male Wistar rat (in vivo, endogenous receptor). The settings on record: rat, sc; usually 30 or 45 min before test. An excerpt: Generalization to the Discriminative Stimulus Properties Induced by 8-OH-DPAT in Rats
This test is used to determine the 5-HT1A receptor agonistic effect of a test compound in vivo. A related method is described by Tricklebank, M. D., supra; Amt, J. Pharmacology & Toxicology, 1989, 64, 165.
The per cent drug responce obtained for each dose of test compound is used to calculate ED50 values by log-probit analysis.

In experiment [2] the target is T1, 5-HT1A receptor. Put plainly: Inhibition of 3H-8-OH-DPAT binding to serotonin 5-HT1A receptors in rat brain in vitro. Also on record: 5-HT1A receptors in membranes from rat brain minus cerebellum; from tissue; host or cells: rat brain minus cerebellum, membranes. The settings on record: 3H-8-OH-DPAT 1 nM; membranes from rat brain minus cerebellum; read-out: IC50, 3H 8-OH-DPAT binding. As for the experimental part:
Inhibition of ^3 H-8-OH-DPAT Binding to Serotonin 5-HT1A Receptors in Rat Brain in vitro.
By this method the inhibition by drugs of the binding of the 5-HT1A agonist 3H-8-OH-DPAT (1 nM) to 5-HT1A receptors in membranes from rat brain minus cerebellum is determined in vitro . Accordingly, this is a test for affinity for the 5-HT1A receptor. The assay was performed as described by Hyttel et al., Drug Dev. Res. 1988, 15, 389-404.

Experiment [3] deals with T1, 5-HT1A receptor. As to the kind of experiment: Inhibition of 5-MeO-DMT-induced 5-HT syndrome in rats. Format: in vivo, rat (male Wistar). The settings on record: sc, 5-MeO-DMT 5 mg/kg s.c., inhibition of piano playing. Also on record: Male Wistar rats (Mol:Wist) weighing 170-240 g are used; from tissue; host or cells: living male Wistar rat (Mol:Wist) (in vivo, endogenous receptor). An excerpt: Inhibition of 5-MeO-DMT-Induced 5-HT Syndrome in Rats
The so-called 5-HT syndrome is a characteristic pattern of behaviours which are induced by 5-HT agonists with effects on 5-HT, possibly 5-HT1A receptors (Smith, L. M. and Peroutka, S. J., Pharmacol. Biochem. & Behaviour, 1986, 24, 1513; Tricklebank, M. et al, Eur. J. Pharmacol. 1985, 117, 15). This test is a test for determining the antagonist effects of a test compound on 5-HT1A receptors in vivo by measuring the ability to inhibit 5-MeO-DMT induced 5-HT syndrome.
Male Wistar rats (Mol:Wist) weighing 170-240 g are used. Test substance is injected s.c. before 5-MeO-DMT 5 mg/kg, s.c. Four rats are used for each dose. A control group pretreated with saline is included each test day. 10, 15 and 20 min later the rats are observed for presence of serotonin (5-HT) syndrome. The following symptoms are recorded: 1) forepaw treading ("piano playing"), 2) head weaving and 3) hindleg abduction. Furthermore, flat motility is scored. Each part of the syndrome is scored as follows: marked effect (score 2), weak syndrome (score 1) and no effect (score 0). The scores of the three observation periods are added. Thus the maximum obtainable score for four rats is 24. The effect of the test substance is expressed as percent inhibition relative to the control group.
The percent inhibition of the piano playing syndrome is used as the response and ED50 value are calculated by log-probit analysis.

With `[O-][S+](CCCN1CCN(c2cccc3c2OCCO3)CC1)C1CCCCC1` (centres unmarked) [Compound 3a, 1-(1,4-Benzodioxan-5-yl)-4-(3-cyclohexylthio-1-propyl)piperazine S-oxide], the figures for the 50% effective dose (ED50) at 5-HT1A receptor [1] and on 5-HT1A receptor [3] were 0.02 µmol/kg and 5.2 µmol/kg, respectively. Also, at 5-HT1A receptor [2], the IC50 (commonly the concentration that inhibits the measured activity by half) was determined as 1.8 nM.
In the same order, the values of `O=S(=O)(CCCN1CCN(c2cccc3c2OCCO3)CC1)C12CC3CC(CC(C3)C1)C2` [Compound 1f, 1-[3-(1-Adamantyl)sulfonyl-1-propyl]-4-(1,4-benzodioxan-5-yl)piperazine] are 0.052 µmol/kg, 0.47 µmol/kg and 1.1 nM.
For `O=S(=O)(CCCN1CCN(c2cccc3c2OCC3)CC1)C1CCCCC1` [Compound 1c, 1-(3-Cyclohexylsulfonyl-1-propyl)-4-(2,3-dihydrobenzofuran-7-yl)piperazine], in that order: 0.069 µmol/kg, 12 µmol/kg and 2.6 nM.
In the case of `O=C1N(CCN2CCN(c3cccc4c3OCC4)CC2)CCN1C1CCCC1` [Compound 2f, 1-Cyclopentyl-3-[2-[4-(2,3-dihydrobenzofuran-7-yl)-1-piperazinyl]ethyl]-2-imidazolidinone], the ED50 (usually the midpoint of the dose-response relation) amounted to 40 µmol/kg at 5-HT1A receptor [1] and 28 µmol/kg at 5-HT1A receptor [3]. On 5-HT1A receptor [2], the IC50 turned out to be 54 nM.
Take `CC1(C)Cc2cccc(N3CCN(CCCCN4CCN(C5CCCCC5)C4=O)CC3)c2O1` [Compound 2bb, 1-Cyclohexyl-3-[4-[4-(2,3-dihydro-2,2-dimethylbenzofuran-7-yl)-1-piperazinyl]-1-butyl]-2-imidazolidinone]: the values for the ED50 at 5-HT1A receptor [1] and on 5-HT1A receptor [3] were 0.036 µmol/kg and 0.78 µmol/kg, respectively. On 5-HT1A receptor [2], the concentration for half-maximal inhibition (IC50) came to 0.92 nM.
`O=c1n(CCN2CCN(c3cccc4c3OCCO4)CC2)ccn1-c1ccc(F)cc1` [Compound 5a, 1-[3-[4-(1,4-Benzodioxan-5-yl)-1-piperazinyl]-1-ethyl]-1,3-dihydro-3-(4-fluorophenyl)-2-imidazolone]: the values for the ED50 at 5-HT1A receptor [1] and on 5-HT1A receptor [3] were 1.8 µmol/kg and 12 µmol/kg, respectively. Also, the IC50 at 5-HT1A receptor [2] worked out at 11 nM.
`CC1(C)Cc2cccc(N3CCN(CCN4CCN(c5ccccc5)C4=O)CC3)c2O1` [Compound 2n, 1-[2-[4-(2,3-Dihydro-2,2-dimethylbenzofuran-7-yl)-1-piperazinyl]ethyl]-3-phenyl-2-imidazolidinone] came in with an ED50 at 5-HT1A receptor [1] of 0.13 µmol/kg. The IC50 on 5-HT1A receptor [2] stood at 3.2 nM.
With `O=C1N(CCN2CCN(c3cccc4ccoc34)CC2)CCN1c1ccccc1` [Compound 2m, 1-[2-[4-Benzofuran-7-yl-1-piperazinyl]ethyl]-3-phenyl-2-imidazolidinone], on 5-HT1A receptor [1], the ED50 amounted to 2.3 µmol/kg. Moreover, the IC50 on 5-HT1A receptor [2] is 12 nM.
For `O=S(=O)(CCCN1CCN(c2cccc3c2OCCO3)CC1)c1ccccc1` [Compound 1b, 1-(1,4-Benzodioxan-5-yl)-4-(3-phenylsulfonyl-1-propyl)piperazine], the ED50 turned out to be 0.099 µmol/kg on 5-HT1A receptor [1] and 9.5 µmol/kg at 5-HT1A receptor [3]. Besides, the concentration for half-maximal inhibition (IC50) at 5-HT1A receptor [2] was determined as 7.8 nM.
As to `CC1(C)Cc2cccc(N3CCN(CCCCN4CCN(C56CC7CC(CC(C7)C5)C6)C4=O)CC3)c2O1` [Compound 2gg, 1-Adamantyl-3-[4-[4-(2,3-dihydro-2,2-dimethylbenzofuran-7-yl)-1-piperazinyl]-1-butyl]-2-imidazolidinone], the IC50 at 5-HT1A receptor [2] was 2.8 nM.
As to `O=C1N(CCN2CCN(c3cccc4occc34)CC2)CCN1c1ccccc1` [Compound 2r, 1-[2-(4-Benzofuran-4-yl-1-piperazinyl)ethyl]-3-phenyl-2-imidazolidinone], the 50% inhibitory concentration (IC50) on 5-HT1A receptor [2] was 23 nM.
On to `CC1(C)Cc2cc(F)cc(N3CCN(CCCCN4CCN(C5CCCCC5)C4=O)CC3)c2O1` [Compound 2mm], for which the IC50 at 5-HT1A receptor [2] worked out at 1.7 nM.
For the compound `CCOC(=O)c1cc2c(N3CCN(CCN4CCN(C5CCCC5)C4=O)CC3)cccc2o1` [Compound 2cc, Ethyl [4-[4-[2-(3-cyclopentyl-2-imidazolidinon-1-yl)ethyl]-1-piperazinyl]-2-benzofuranyl] carboxylate], the IC50 on 5-HT1A receptor [2] came to 83 nM.
Turning to `CC1(C)Cc2c(cccc2N2CCN(CCCN3CCN(C4CCCCC4)C3=O)CC2)O1` [Compound 14d], the IC50 at 5-HT1A receptor [2] came to 22 nM.
In the case of `O=C1N(CCN2CCN(c3cccc4c3OCC4)CC2)CCN1c1ccc(F)cc1` [Compound 2i, 1-[2-[4-(2,3-Dihydrobenzofuran-7-yl)-1-piperazinyl]ethyl]-3-(4-fluorophenyl)-2-imidazolidinone], the half-maximal inhibitory concentration (IC50) on 5-HT1A receptor [2] came out at 30 nM.
As to `CC1(C)Cc2cccc(N3CCN(CCCCCCN4CCN(C5CCCC5)C4=O)CC3)c2O1` [Compound 2nn, 1-Cyclopentyl-3-[6-[4-(2,3-dihydro-2,2-dimethylbenzofuran-7-yl)-1-piperazinyl]-1-hexyl]-2-imidazolidinone], the IC50 at 5-HT1A receptor [2] came out at 5.4 nM.
As to `CC1(C)COc2c(N3CCN(CCN4CCN(C5CCCC5)C4=O)CC3)cc(Cl)cc21` [Compound 2oo], the IC50 at 5-HT1A receptor [2] amounted to 44 nM.
As for `CC1(C)Cc2cccc(N3CCN(CCCCN4CCN(c5ccc(F)cc5)C4=O)CC3)c2O1` [Compound 2dd, 1-[4-[4-(2,3-Dihydro-2,2-dimethylbenzofuran-7-yl)-1-piperazinyl]-1-butyl]-3-(4-fluorophenyl)-2-imidazolidinone], the half-inhibitory concentration (IC50) at 5-HT1A receptor [2] is 0.5 nM.
Still for that read-out and setting: the figure for `O=C1N(CCN2CCN(c3cccc4occc34)CC2)CCN1C1CCCC1` [Compound 2s, 1-[2-(4-Benzofuran-4-yl-1-piperazinyl)ethyl]-3-cyclopentyl-2-imidazolidinone] is 32 nM.
Turning to `CC1(C)Cc2cccc(N3CCN(CCN4CCN(C5CCCC5)C4=O)CC3)c2O1` [Compound 2p, 1-Cyclopentyl-3-[2-[4-(2,3-dihydro-2,2-dimethylbenzofuran-7-yl)-1-piperazinyl]ethyl]-2-imidazolidinone], the ED50 at 5-HT1A receptor [1] turned out to be 1.1 µmol/kg; on 5-HT1A receptor [3], 4.2 µmol/kg. For the same compound, on 5-HT1A receptor [2], the IC50 was found to be 3.7 nM.
